Measured values from PubChem BioAssay AID489027 (Sanford-Burnham Center for Chemical Genomics, 2010).
Calls of active or inactive are those of the source. How the calls were made is not given here.

What follows are compounds tested against UPR counterscreen luciferase reporter, luminescence (assay: activators in UPR counterscreen luciferase reporter, dose response, counter-screen for adaptive UPR activator project, cell-based, luminescence (AID 489027)).

EC50 | Compound
15 µM | NS(=O)(=O)c1ccc(N/N=C2/CCCCC2C2CCCCC2)c([N+](=O)[O-])c1 (stereo unspecified)
13.8 µM | NC(=S)N/N=C/c1ccc(C23CC4CC(CC(C4)C2)C3)cc1
4.72 µM | O=C(Nc1ccc(-c2nc3cc(NC(=O)c4cccs4)ccc3o2)cc1)c1cccs1
> 80 µM (inactive) | O=C(NCCC1=CCCCC1)C(=O)NCC(c1ccco1)N1CCN(c2ccc(F)cc2)CC1 (stereo unspecified)
> 80 µM (inactive) | CCCCNC(=O)c1ccc(Cn2c(=S)[nH]c3c([nH]c4ccc(OC)cc43)c2=O)cc1
17.4 µM | COC(=O)c1ccc(COc2ccccc2/C=C(\C#N)C(=O)Nc2c(C)cccc2C)cc1
17.4 µM | CCOC(=O)c1c(NC(=O)CSc2nnc3c(n2)[nH]c2ccc(F)cc23)sc(C(C)=O)c1C
inactive | COc1cccc(-c2c(-c3cc(OC)cc(OC)c3)n(C)c3ccc(-c4cnc(N5CCOCC5)nc4)cc23)c1
> 80 µM (inactive) | COc1ccc(-c2nc3scc(-c4ccc(OC)c(OC)c4)c3c(=O)o2)cc1
> 80 µM (inactive) | Cc1cc(NC(=O)CSc2nc3sc(C)c(C)c3c(=O)n2C2CCCC2)no1
11.6 µM | CCc1ccccc1NC(=O)C(CC)Sc1nc2cc3c(cc2c(=O)n1Cc1ccco1)OCO3 (stereo unspecified)
5.55 µM | Oc1ccc(CN2CCC(Cc3ccccc3)CC2)c2cccnc12
inactive | CC1CCc2c(sc(NC(=O)CCc3nc4ccccc4c(=O)[nH]3)c2C#N)C1 (stereo unspecified)
inactive | CCc1ccc2[nH]c3nc(SCc4nnc(-c5ccc(C)cc5)o4)nnc3c2c1
> 80 µM (inactive) | COc1cccc(/C=N/Nc2ccc([N+](=O)[O-])cn2)c1O
inactive | CCCCCn1c(N)c(-c2nc3ccccc3o2)c2c([N+](=O)[O-])nn(CC)c(=O)c21
inactive | CCOc1cc2c3c(c1)C(C)=CC(C)(C)N3C(=O)C2=O
> 80 µM (inactive) | CCNC(=O)c1c(NC(=O)c2cc(-c3cc(C)ccc3O)n[nH]2)sc2c1CCCC2
3.35 µM | CCc1ccc(-c2cc(C(F)(F)F)n3nc(C(=O)Nc4cnn(Cc5ccc(C)cc5)c4)cc3n2)s1
3.77 µM | COc1cc(/C=C(/C#N)c2nc3ccccc3[nH]2)ccc1OCC(=O)Nc1ccccc1C
13.6 µM | FC(F)(F)c1nc2ccccc2n2c(-c3ccc(Cl)cc3)nnc12
10.4 µM | COc1ccc(C(CCNCc2ccccc2)c2ccc(F)cc2)cc1 (stereo unspecified)
12 µM | Cc1ccc(Cc2cnc(NC(=O)/C(C#N)=C/c3ccc(-c4cccc([N+](=O)[O-])c4)o3)s2)cc1
> 80 µM (inactive) | CCOC(=O)c1cc(NC(=O)c2ccc(Cl)cc2)c(=O)n2c1oc1ccc(Cl)cc12

EC50 | Compound
inactive | COc1ccccc1C(=O)NC(=S)NNC(=O)c1sc2ccccc2c1Cl
> 80 µM (inactive) | COc1ccccc1-c1cc(-c2ccccc2)nc(SC(C(N)=O)c2ccccc2)c1C#N (stereo unspecified)
17.7 µM | COc1ccccc1-c1sc2cc3c(cc2c1-c1ccc(OCCN2CCCCC2)cc1)OCO3
> 80 µM (inactive) | Cc1ccc(-c2nnc(-c3ccc(NC(=O)Cc4cccs4)cc3)o2)cc1
> 80 µM (inactive) | CN1C(=O)/C(=C/c2ccc(C(=O)NC3CCCC3)cc2)Oc2ccccc21
inactive | N#Cc1cc2c(nc1SCC(=O)Nc1sc3c(c1C#N)CCC3)CCCC2
> 80 µM (inactive) | CCOc1cc(/C=N/N=C(\N)c2nonc2N)cc(Br)c1OCc1cccc2ccccc12
16.2 µM | CCOC(=O)c1sc(-c2ccccc2)cc1NC(=O)Nc1ccc([N+](=O)[O-])cc1
> 80 µM (inactive) | COc1ccc(CCn2c(=S)[nH]c3cc(C(=O)NCc4ccco4)ccc3c2=O)cc1OC
inactive | Cc1ccc(Cn2c(C(C)Nc3nc(-c4ccc(F)cc4)cs3)nc3cc(Cl)c(Cl)cc32)cc1 (stereo unspecified)
7.91 µM | COc1ccc2cc1Oc1ccc(cc1)C[C@H]1c3c(cc(OC)c4c3Oc3c(ccc5c3[C@H](C2)N(C)CC5)O4)CCN1C
inactive | C=CCOc1ccc2cccc(/C=N/NC(=O)c3cc4cc([N+](=O)[O-])ccc4s3)c2c1
13 µM | CCOC(=S)SCC(=O)Nc1nc(-c2ccc(Br)cc2)cs1
inactive | Oc1cc(-c2cccnc2)cc2cccnc12
inactive | Cc1ccc(/C=C/C(=O)c2cc(Br)ccc2OC(=O)c2ccco2)cc1
> 80 µM (inactive) | CC(=O)Nc1ccccc1Sc1ccc2c3c(cccc13)C(=O)N(c1ccc(C)cc1)C2=O
inactive | Cc1ccc(C)c(N=Cc2c(O)c3ccccc3oc2=O)c1
7.62 µM | COc1cc(/C=C/c2ccc3cccc(O)c3n2)ccc1O
> 80 µM (inactive) | COc1ccc(-c2csc(C3=C(O)CN(Cc4ccc(Cl)cc4)C3=N)n2)cc1OC
inactive | Cc1nn(Cc2ccccc2)c(C)c1NC(=O)CSc1nc(C2CC2)nc2c1cnn2-c1ccccc1
8.33 µM | O=C(Oc1ccccc1/C=C\C(=O)c1cc2ccccc2o1)c1cccc(F)c1
17.4 µM | Brc1ccc(-c2ccc(/C=N/Nc3nncc(-c4ccccc4)n3)o2)cc1
> 80 µM (inactive) | COc1cc(/C=C2/C(=N)N3C=CSC3=NC2=O)ccc1OCCCOc1cc(C)ccc1C
> 80 µM (inactive) | COc1ccc(S(=O)(=O)N2c3cc(Cl)ccc3Oc3nc4ccccc4nc32)cc1

EC50 | Compound
11.9 µM | O=c1[nH]c(-c2ccc(-c3cccc(Cl)c3)o2)nc2ccccc12
> 80 µM (inactive) | Cc1cc(C)c2sc(N(CCCN(C)C)C(=O)c3ccc(S(=O)(=O)N4CCCc5ccccc54)cc3)nc2c1
7 µM | O=c1cc(CN2CCN(c3ccccc3)CC2)c2cc(O)c(-c3ccccc3)cc2o1
11.3 µM | Cc1ccc(Cc2cnc(NC(=O)/C(C#N)=C/c3ccc(-c4ccc([N+](=O)[O-])cc4)o3)s2)cc1
inactive | CCCCN1C(=O)C(=O)c2cc(Cl)ccc21
> 80 µM (inactive) | C#CCn1c(=NC(=O)c2ccc(Br)s2)sc2cccc(OC)c21
> 80 µM (inactive) | Cc1ccc(NC(=O)Cn2c(/C=C/c3ccccc3)nc3ccccc32)cc1C
inactive | CCOc1ccc(-n2nc3ccc(NC(=O)c4ccc5c(c4)OCCO5)cc3n2)cc1
> 80 µM (inactive) | Fc1ccc(Nc2nc(NCc3ccco3)c3ccccc3n2)cc1
6.64 µM | Cc1ccc(NC(=O)c2ccc(N/N=C/c3cccc(O)c3)c([N+](=O)[O-])c2)cc1
2.33 µM | CCCCCCCC(=O)Nc1ccc(C(=O)N/N=C/c2cccc([N+](=O)[O-])c2)cc1
6.58 µM | CC1CCN(Cc2c(C(=O)N/N=C/c3ccc(C(C)(C)C)cc3)nnn2-c2nonc2N)CC1
inactive | CC(C)(C)c1cc(-c2nc(N)nc(N)n2)c(O)c(C(C)(C)C)c1
2.14 µM | CC(C)(C)C(=O)NC(=S)NNC(=O)C(c1ccccc1)c1ccccc1
> 80 µM (inactive) | CCCCC1CCC(C(=O)N(CC(C)C)c2c(N)n(CCCC)c(=O)[nH]c2=O)CC1 (stereo unspecified)
inactive | CCC(C)Nc1nc(N)c([N+](=O)[O-])c(NC2CCCCC2)n1 (stereo unspecified)
> 80 µM (inactive) | Cc1ccc(NC(=O)c2nc[nH]c2C(=O)NCCCNC(=O)c2[nH]cnc2C(=O)Nc2ccc(C)cc2)cc1
> 80 µM (inactive) | Cc1ccc(-c2nnn(CC(=O)N(Cc3cccs3)C(C(=O)NC3CCCCC3)c3ccco3)n2)o1 (stereo unspecified)
13 µM | COc1ccc2cc(C)c3nnc(SCC(=O)Nc4nc(-c5ccc(F)cc5)cs4)n3c2c1
14.1 µM | CCCCNc1c(-c2ccc(SC(C)CC)cc2)nc2cnccn12 (stereo unspecified)
13.1 µM | Cc1ccc(-c2nn(CC(=O)NCc3cc(-c4nn(C)c(=O)c5ccccc45)ccc3C)c(=O)c3ccccc23)cc1
9.29 µM | CCOC(=O)N1CCN(S(=O)(=O)c2ccc(C(=O)Nc3nc4c(s3)CC(C)CC4)cc2)CC1 (stereo unspecified)
> 80 µM (inactive) | Cc1ccc(-n2nc3c(N4CCC(C(=O)NCCc5cccs5)CC4)nnc(C)c3c2C)cc1
> 80 µM (inactive) | Cc1ccc2nc(Nc3nc(-c4ccccc4)cc(=O)[nH]3)nc(C)c2c1

EC50 | Compound
5.82 µM | OCCNc1nc(Nc2ccc(Br)cc2)nc2ccccc12
8.45 µM | CC1=C(/C=C/C(C)=C/C=C/C(C)=C/C(=O)Nc2ccc(O)cc2)C(C)(C)CCC1
inactive | O=[N+]([O-])c1ccc(Cl)c(-c2ccc(/C=N/c3c(-c4ccco4)nc4ccccn34)o2)c1
7.48 µM | O=[N+]([O-])c1ccc(N/N=C/c2cccc(O)c2O)c(S(=O)(=O)N2CCOCC2)c1
inactive | COc1ccc(C(CCNC(C)c2ccccc2)c2ccc(F)cc2)cc1 (stereo unspecified)
inactive | COc1ccc(-c2c/c(=N\c3nc(-c4ccccc4)c(C)s3)c3ccccc3o2)cc1O
inactive | Cc1ccc(CN2C(=O)C(=O)c3cc(C)ccc32)cc1
9.19 µM | COc1cc2nc(N3CCN(c4cc(C)ccc4C)CC3)nc(N)c2cc1OC
7.41 µM | COc1cc(SC#N)ccc1N=Cc1c(C)[nH]n(-c2ccc(Cl)cc2)c1=O
> 80 µM (inactive) | CC(C)CC(NC(=O)c1ccc(Cl)cc1)C(=O)OCC(=O)c1ccc2c(c1)NC(=O)CO2 (stereo unspecified)
8.05 µM | N#Cc1ccc(-c2ccc(Cl)cc2)nc1SCC(=O)c1cccc(Cl)c1
5.8 µM | COc1ccc(-n2c(C)cc(C(=O)CCl)c2C)cc1
inactive | COc1ccc2c(c1)NC(c1cc(Cl)cc(Cl)c1O)c1cccn1-2 (stereo unspecified)
15.2 µM | Cc1cc(N2CCN(c3nc(-c4ccc([N+](=O)[O-])cc4)cs3)CC2)c2ccccc2n1
> 80 µM (inactive) | COc1ccc(N2CCN(Cc3cc(=O)oc4cc(-c5ccccc5)c(O)cc34)CC2)cc1
19.1 µM | Cc1cc(C)c2c(CCl)cc(=O)oc2c1
inactive | CN(C)S(=O)(=O)c1ccc(N2CCCC2)c(C(=O)Nc2nccs2)c1
inactive | O=C(Nc1nc2ccccc2s1)c1cc2c(s1)-c1ccccc1OC2
9.06 µM | Cc1ccc(F)cc1N=Cc1c(O)c2ccccc2oc1=O
6.95 µM | CCC[C@@H](CN[C@@H](CNC)[C@H](C)CC)NCC1CCC(C(C)(C)C)CC1 (stereo partly specified)
inactive | Cc1ccc(O)c(NC(=S)NC(=O)Cc2ccc(Cl)cc2)c1
7.43 µM | Cc1cccc2sc(NC(=O)c3cc(S(=O)(=O)N(C)C)ccc3N3CCCC3)nc12
7.34 µM | NS(=O)(=O)c1ccc(N/N=C/c2cn(-c3ccccc3)nc2-c2ccccc2)c([N+](=O)[O-])c1
> 80 µM (inactive) | COc1ccc(Br)cc1-c1nc2c(c(=O)[nH]c(=O)n2Cc2ccccc2)n1C
